Laboratory results published in ChEMBL document CHEMBL4038297, “Fluorinated tranylcypromine analogues as inhibitors of lysine-specific demethylase 1 (LSD1, KDM1A)” (Bioorg Med Chem Lett, 2017).

Key:
[1] = target: Lysine-specific histone demethylase 1A (Homo sapiens, UniProt O60341); assay: Inhibition of recombinant human His-tagged LSD1 expressed in Escherichia coli BL21 (DE3) using H3K4me2 peptide as substrate preincubated for 10 mins followed by substrate addition measured after 20 mins by Amplex red dye based fluorescence assay
THP-1 = assay: Antiproliferative activity against human THP1 cells after 72 hrs by CellTitre-Glo assay; details: THP-1, 72 h
MV4-11 = assay: Antiproliferative activity against human MV411 cells after 72 hrs by CellTitre-Glo assay; details: MV4-11, 72 h

Row | SMILES | IC50 [1] | IC50 (THP-1) | IC50 (MV4-11)
1 | N[C@H]1C[C@@]1(F)c1ccc(F)cc1 | > 25 µM |  | 
2 | Cc1ccc([C@]2(F)C[C@@H]2N)cc1 | > 25 µM |  | 
3 | COc1ccc([C@]2(F)C[C@@H]2N)cc1 | > 25 µM |  | 
4 | N[C@H]1C[C@]1(F)c1ccc(F)cc1 | > 25 µM |  | 
5 | N[C@H]1C[C@]1(F)c1ccccc1 | > 25 µM |  | 
6 | COc1ccc([C@@]2(F)C[C@@H]2N)cc1 | > 25 µM |  | 
7 | Cc1ccc([C@@]2(F)C[C@@H]2N)cc1 | > 25 µM |  | 
8 | N[C@H]1C[C@@]1(F)c1ccccc1 | > 25 µM |  | 
9 | N[C@@H]1C[C@H]1c1ccccc1.N[C@H]1C[C@@H]1c1ccccc1 (racemic) [TRANYLCYPROMINE] |  | 810 µM | 630 µM
10 | N[C@H]1C[C@@]1(F)c1ccc([N+](=O)[O-])cc1 (relative stereo) | > 50 µM |  | 
11 | CCOc1ccc([C@@]2(F)C[C@@H]2N)cc1 (relative stereo) | > 50 µM |  | 
12 | N[C@H]1C[C@]1(F)c1cccc(F)c1 (relative stereo) |  | 1.6 µM | 4.9 µM
13 | N[C@H]1C[C@]1(F)c1ccc([N+](=O)[O-])cc1 (relative stereo) | > 50 µM |  | 
14 | N[C@H]1C[C@@]1(F)c1cccc(F)c1 (relative stereo) |  | 7 µM | 8.2 µM
15 | COc1cccc([C@@]2(F)C[C@@H]2N)c1 (relative stereo) |  | 8.5 µM | 1.9 µM
16 | CCOc1ccc([C@]2(F)C[C@@H]2N)cc1 (relative stereo) | > 50 µM |  | 
17 | N[C@H]1C[C@]1(F)c1cccc([N+](=O)[O-])c1 (relative stereo) |  | > 30 µM | > 30 µM
